The values below come from patent publication US9670261B2 (Sanofi, priority 2012, dated 2017).

The test system of data set [1] is female leptin-receptor deficient diabetic db/db mice. Nature of the data set: Blood glucose and HbA1c in leptin-receptor deficient diabetic db/db mice (method 3). It counts as in vivo. Particulars: single 100 μg/kg s.c., fed db/db mice. An excerpt: Female BKS.Cg-m+/+Leprdb/J (db/db) and BKS.Cg-m+/+Leprdb/+(lean control) mice were obtained from Charles River Laboratories, Germany, at an age of 9-10 weeks. The animals were housed in groups in a specific pathogen-free barrier facility on a 12-h light/dark cycle with free access to water and rodent-standard chow. After 1 week of acclimatization, blood samples were drawn from the tail without anaesthesia and blood glucose (method: d-glucose hexokinase, hemolysate, AU640 Beckman Coulter) and HbA1c level (method: hemolysate, Cobas6000 c501, Roche Diagnostics, Germany) were determined. […] The volume of administration was 5 mL/kg. The animals had access to water and chow during the experiment, food consumption was determined at all time points of blood sampling. […] Blood sampling was performed by tail incision without anaesthesia. […] At the end of the study, blood samples (tail, no anaesthesia) were analyzed for glucose and HbA1c. […] Statistical analyses were performed with Everstat 6.0 by repeated measures two-way ANOVA and Dunnett's post-hoc analyses. Differences versus vehicle-treated db/db control mice were considered statistically significant at the p<0.05 level. […] At predefined time points, more blood samples were taken to measure blood glucose and generate the blood glucose profile over 24 h. […] Blood glucose and HbA1c were determined before start of treatment and at the end of the study after 4 weeks of treatment. […] Before treatment started, no significant differences in blood glucose levels could be detected between db/db groups, only the lean control animals had significant lower glucose levels. During the 4 weeks of treatment, glucose levels increased in the vehicle-treated db/db control group, indicating a worsening of the diabetic situation.

Data set [2] is described as follows: Pharmacokinetic testing in mice, s.c. Particulars: mouse, plasma, sc, 1 mg/kg.
Description: Mice were dosed 1 mg/kg subcutaneously (s.c.). The mice were sacrified and blood samples were collected after 0.25, 0.5, 1, 2, 4, 8, 16 and 24 hours post application. Plasma samples were analyzed after protein precipitation via liquid chromatography mass spectrometry (LC/MS). PK parameters and half-life were calculated using WinonLin Version 5.2.1 (non-compartment model).
In another data set the target is T1, human GIP receptor (Homo sapiens, UniProt P48546).
T1 construct: expressed in transfected cells
T1 sequence (P48546 22-466): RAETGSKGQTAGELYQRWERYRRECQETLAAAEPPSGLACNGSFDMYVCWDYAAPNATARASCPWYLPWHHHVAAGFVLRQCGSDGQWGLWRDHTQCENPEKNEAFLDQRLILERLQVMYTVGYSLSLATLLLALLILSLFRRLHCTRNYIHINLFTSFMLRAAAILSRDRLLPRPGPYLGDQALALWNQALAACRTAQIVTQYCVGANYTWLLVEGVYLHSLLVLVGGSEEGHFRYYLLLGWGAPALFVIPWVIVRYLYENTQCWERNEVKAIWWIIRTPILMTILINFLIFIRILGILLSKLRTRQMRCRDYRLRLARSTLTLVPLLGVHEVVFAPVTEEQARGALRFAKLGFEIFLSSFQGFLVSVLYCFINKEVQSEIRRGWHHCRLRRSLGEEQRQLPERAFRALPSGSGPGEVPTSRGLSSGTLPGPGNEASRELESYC
Nature of the data set: cAMP response (HTRF) of HEK-293 cells stably expressing human GIP receptor. It is filed as cell-based. Particulars: Table 7; cAMP formation; read-out: EC50 hGIP R. The protocol: cAMP content of cells was determined using a kit from Cisbio Corp. (cat. no. 62AM4PEC) based on HTRF (Homogenous Time Resolved Fluorescence). For preparation, cells were split into T175 culture flasks and grown overnight to near confluency in medium (DMEM/10% FBS). Medium was then removed and cells washed with PBS lacking calcium and magnesium, followed by proteinase treatment with accutase (Sigma-Aldrich cat. no. A6964). Detached cells were washed and resuspended in assay buffer (1×HBSS; 20 mM HEPES, 0.1% BSA, 2 mM IBMX) and cellular density determined. They were then diluted to 400000 cells/ml and 25 μl-aliquots dispensed into the wells of 96-well plates. For measurement, 25 μl of test compound in assay buffer was added to the wells, followed by incubation for 30 minutes at room temperature.
(In TR-FRET formats the signal depends on donor and acceptor labels being close together.)

For a further data set, the target named is T2, human GLP-1 receptor (Homo sapiens, UniProt P43220).
T2 construct: expressed in transfected cells
T2 sequence (P43220 24-463): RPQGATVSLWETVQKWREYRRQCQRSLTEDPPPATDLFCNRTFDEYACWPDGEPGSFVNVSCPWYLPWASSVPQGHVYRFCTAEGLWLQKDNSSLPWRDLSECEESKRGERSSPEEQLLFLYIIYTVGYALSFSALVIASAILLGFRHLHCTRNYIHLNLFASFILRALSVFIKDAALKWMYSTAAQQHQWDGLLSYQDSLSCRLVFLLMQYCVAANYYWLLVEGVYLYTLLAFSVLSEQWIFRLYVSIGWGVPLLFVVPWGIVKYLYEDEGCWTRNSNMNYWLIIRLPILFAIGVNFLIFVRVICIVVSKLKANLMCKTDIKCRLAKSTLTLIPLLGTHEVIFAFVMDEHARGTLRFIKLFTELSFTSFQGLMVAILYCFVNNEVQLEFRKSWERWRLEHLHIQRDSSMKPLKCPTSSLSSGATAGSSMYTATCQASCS
Nature of the data set: cAMP response (HTRF) of HEK-293 cells stably expressing human GLP-1 receptor. It counts as cell-based. Particulars: Table 7; cAMP formation; read-out: EC50 hGLP-1 R. In outline: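 Stably transfected HEK-293 cells, accutase-harvested; assay buffer 1×HBSS/20 mM HEPES/0.1% BSA/2 mM IBMX; 400000 cells/ml; compound 30 min, RT; cAMP by HTRF kit.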

*1 amine or outer side, *2 acyl side, *3 side chain or, on linkers, in order; H or OH if unused. Where a SMILES comes first, the peptide text is derived from it. Side-chain parts run from the residue outwards. [ ]: non-standard residue; d: D form. The star is where a group is joined. γGlu = O=C(O)[C@H](CCC(=O)[*:2])N[*:1]; Palmitoyl = CCCCCCCCCCCCCCCC(=O)*; Aib = CC(C)(N)C(=O)O

By Cmax is commonly meant the peak of the concentration-time curve. As a reminder, the half-life is the time in which the quantity being followed falls by half. A lower half-life goes with rapid decline. Regarding `CCCCCCCCCCCCCCCC(=O)N[C@@H](CCC(=O)NCCCC[C@H](NC(=O)[C@H](CCC(N)=O)NC(=O)[C@@H](NC(=O)[C@H](CO)NC(=O)[C@H](CC(C)C)NC(=O)[C@H](CC(=O)O)NC(=O)[C@H](CO)NC(=O)[C@@H](NC(=O)[C@H](Cc1ccccc1)NC(=O)[C@@H](NC(=O)CNC(=O)[C@H](CCC(=O)O)NC(=O)C(C)(C)NC(=O)[C@@H](N)Cc1ccc(O)cc1)[C@@H](C)O)[C@@H](C)O)[C@@H](C)CC)C(=O)N[C@@H](CCC(=O)O)C(=O)N[C@@H](CO)C(=O)N[C@@H](CCCNC(=N)N)C(=O)N[C@@H](C)C(=O)N[C@@H](C)C(=O)N[C@@H](CCC(N)=O)C(=O)N[C@@H](CC(=O)O)C(=O)N[C@@H](Cc1ccccc1)C(=O)N[C@H](C(=O)N[C@@H](CCC(=O)O)C(=O)N[C@@H](Cc1c[nH]c2ccccc12)C(=O)N[C@@H](CC(C)C)C(=O)N[C@@H](CCCCN)C(=O)N[C@@H](C)C(=O)NCC(=O)NCC(=O)N1CCC[C@H]1C(=O)N[C@@H](CO)C(=O)N[C@@H](CO)C(=O)NCC(=O)N[C@@H](C)C(=O)N1CCC[C@H]1C(=O)N1CCC[C@H]1C(=O)N1CCC[C@H]1C(=O)N[C@@H](CO)C(N)=O)[C@@H](C)CC)C(=O)O` [SEQ ID NO: 10, Y-Aib-E-G-T-F-T-S-D-L-S-I-Q-K(γE-x53)-ESRAAQDFIEWLKAGGPSSGAPPPS-NH2] (H-Y[Aib]EGTFTSDLSIQK([γGlu-Palmitoyl])ESRAAQDFIEWLKAGGPSSGAPPPS-NH2), the “blood glucose compared to db/db control mice, 24 h profile” value in data set [1] is reported as “significant decrease in blood glucose”. In data set [2], the Cmax turned out to be 5820 ng/mL and the half-life is 2.7 h.
In general, EC50 refers to the concentration needed to bring the measured effect to its halfway point. Regarding `CCCCCCCCCCCCCCCC(=O)N[C@@H](CCC(=O)NCCCC[C@H](NC(=O)[C@H](CCC(N)=O)NC(=O)[C@@H](NC(=O)[C@H](CO)NC(=O)[C@H](CC(C)C)NC(=O)[C@H](CC(=O)O)NC(=O)[C@H](CO)NC(=O)[C@@H](NC(=O)[C@H](Cc1ccccc1)NC(=O)[C@@H](NC(=O)CNC(=O)[C@H](CCC(=O)O)NC(=O)C(C)(C)NC(=O)[C@@H](N)Cc1ccc(O)cc1)[C@@H](C)O)[C@@H](C)O)[C@@H](C)CC)C(=O)N[C@@H](CCC(=O)O)C(=O)N[C@@H](CCCCN)C(=O)N[C@@H](CCCNC(=N)N)C(=O)N[C@@H](C)C(=O)N[C@@H](C)C(=O)NC(C)(C)C(=O)N[C@@H](CC(=O)O)C(=O)N[C@@H](Cc1ccccc1)C(=O)N[C@H](C(=O)N[C@@H](CCC(=O)O)C(=O)N[C@@H](Cc1c[nH]c2ccccc12)C(=O)N[C@@H](CC(C)C)C(=O)N[C@@H](CCCCN)C(=O)N[C@@H](CC(N)=O)C(=O)N[C@H](C(=O)NCC(=O)N1CCC[C@H]1C(=O)N[C@@H](CO)C(=O)N[C@@H](CO)C(=O)NCC(=O)N[C@@H](C)C(=O)N1CCC[C@H]1C(=O)N1CCC[C@H]1C(=O)N1CCC[C@H]1C(=O)N[C@@H](CO)C(N)=O)[C@@H](C)O)[C@@H](C)CC)C(=O)O` [SEQ ID NO: 27, Y-Aib-E-G-T-F-T-S-D-L-S-I-Q-K(γE-x53)-E-K-R-A-A-Aib-D-F-I-E-W-L-K-N-T-G-P-S-S-G-A-P-P-P-S-NH2] (H-Y[Aib]EGTFTSDLSIQK([γGlu-Palmitoyl])EKRAA[Aib]DFIEWLKNTGPSSGAPPPS-NH2), the figures for the 50% effective concentration (EC50) at human GIP receptor and at human GLP-1 receptor were 6.7 pM and 4 pM, respectively.
Turning to `CCCCCCCCCCCCCCCC(=O)N[C@@H](CCC(=O)NCCCC[C@H](NC(=O)[C@H](CCC(N)=O)NC(=O)[C@@H](NC(=O)[C@H](CO)NC(=O)[C@H](CC(C)C)NC(=O)[C@H](CC(=O)O)NC(=O)[C@H](CO)NC(=O)[C@@H](NC(=O)[C@H](Cc1ccccc1)NC(=O)[C@@H](NC(=O)CNC(=O)[C@H](CCC(N)=O)NC(=O)C(C)(C)NC(=O)[C@@H](N)Cc1ccc(O)cc1)[C@@H](C)O)[C@@H](C)O)[C@@H](C)CC)C(=O)N[C@@H](CCC(=O)O)C(=O)N[C@@H](CO)C(=O)N[C@@H](CCCNC(=N)N)C(=O)N[C@@H](C)C(=O)N[C@@H](C)C(=O)N[C@@H](CCC(N)=O)C(=O)N[C@@H](CC(=O)O)C(=O)N[C@@H](Cc1ccccc1)C(=O)N[C@H](C(=O)N[C@@H](CCC(=O)O)C(=O)N[C@@H](Cc1c[nH]c2ccccc12)C(=O)N[C@@H](CC(C)C)C(=O)N[C@@H](CCCCN)C(=O)N[C@@H](C)C(=O)NCC(=O)NCC(=O)N1CCC[C@H]1C(=O)N[C@@H](CO)C(=O)N[C@@H](CO)C(=O)NCC(=O)N[C@@H](C)C(=O)N1CCC[C@H]1C(=O)N1CCC[C@H]1C(=O)N1CCC[C@H]1C(=O)N[C@@H](CO)C(N)=O)[C@@H](C)CC)C(=O)O` [SEQ ID NO: 32, Y-Aib-Q-G-T-F-T-S-D-L-S-I-Q-K(γE-x53)-ESRAAQDFIEWLKAGGPSSGAPPPS-NH2] (H-Y[Aib]QGTFTSDLSIQK([γGlu-Palmitoyl])ESRAAQDFIEWLKAGGPSSGAPPPS-NH2), on human GIP receptor, the concentration giving a half-maximal response (EC50) was determined as 7.1 pM. In data set [2], the peak level (Cmax) was 5520 ng/mL and the half-life was 2.7 h. In addition, the EC50 at human GLP-1 receptor amounted to 8.4 pM.
With `CCCCCCCCCCCCCCCC(=O)N[C@@H](CCC(=O)NCCCC[C@H](NC(=O)[C@H](CCC(N)=O)NC(=O)[C@@H](NC(=O)[C@H](CO)NC(=O)[C@H](CC(C)C)NC(=O)[C@H](CC(=O)O)NC(=O)[C@H](CO)NC(=O)[C@@H](NC(=O)[C@H](Cc1ccccc1)NC(=O)[C@@H](NC(=O)CNC(=O)[C@H](CCC(=O)O)NC(=O)C(C)(C)NC(=O)[C@@H](N)Cc1ccc(O)cc1)[C@@H](C)O)[C@@H](C)O)[C@@H](C)CC)C(=O)N[C@@H](CCC(=O)O)C(=O)N[C@@H](CCCCN)C(=O)N[C@@H](CCCNC(=N)N)C(=O)N[C@@H](C)C(=O)N[C@@H](C)C(=O)NC(C)(C)C(=O)N[C@@H](CCC(=O)O)C(=O)N[C@@H](Cc1ccccc1)C(=O)N[C@H](C(=O)N[C@@H](CCC(=O)O)C(=O)N[C@@H](Cc1c[nH]c2ccccc12)C(=O)N[C@@H](CC(C)C)C(=O)N[C@@H](CCCCN)C(=O)N[C@@H](C)C(=O)NCC(=O)NCC(=O)N1CCC[C@H]1C(=O)N[C@@H](CO)C(=O)N[C@@H](CO)C(=O)NCC(=O)N[C@@H](C)C(=O)N1CCC[C@H]1C(=O)N1CCC[C@H]1C(=O)N1CCC[C@H]1C(=O)N[C@@H](CO)C(N)=O)[C@@H](C)CC)C(=O)O` [SEQ ID NO: 36, Y-Aib-E-G-T-F-T-S-D-L-S-I-Q-K(γE-x53)-E-K-R-A-A-Aib-E-F-I-E-W-L-K-A-G-G-P-S-S-G-A-P-P-P-S-NH2] (H-Y[Aib]EGTFTSDLSIQK([γGlu-Palmitoyl])EKRAA[Aib]EFIEWLKAGGPSSGAPPPS-NH2), the EC50 at human GIP receptor was 6.4 pM.
